For assay [1], the target named is T1, Disintegrin and metalloproteinase domain-containing protein 8 (Homo sapiens) (UniProt P78325).
T1 sequence (whole entry): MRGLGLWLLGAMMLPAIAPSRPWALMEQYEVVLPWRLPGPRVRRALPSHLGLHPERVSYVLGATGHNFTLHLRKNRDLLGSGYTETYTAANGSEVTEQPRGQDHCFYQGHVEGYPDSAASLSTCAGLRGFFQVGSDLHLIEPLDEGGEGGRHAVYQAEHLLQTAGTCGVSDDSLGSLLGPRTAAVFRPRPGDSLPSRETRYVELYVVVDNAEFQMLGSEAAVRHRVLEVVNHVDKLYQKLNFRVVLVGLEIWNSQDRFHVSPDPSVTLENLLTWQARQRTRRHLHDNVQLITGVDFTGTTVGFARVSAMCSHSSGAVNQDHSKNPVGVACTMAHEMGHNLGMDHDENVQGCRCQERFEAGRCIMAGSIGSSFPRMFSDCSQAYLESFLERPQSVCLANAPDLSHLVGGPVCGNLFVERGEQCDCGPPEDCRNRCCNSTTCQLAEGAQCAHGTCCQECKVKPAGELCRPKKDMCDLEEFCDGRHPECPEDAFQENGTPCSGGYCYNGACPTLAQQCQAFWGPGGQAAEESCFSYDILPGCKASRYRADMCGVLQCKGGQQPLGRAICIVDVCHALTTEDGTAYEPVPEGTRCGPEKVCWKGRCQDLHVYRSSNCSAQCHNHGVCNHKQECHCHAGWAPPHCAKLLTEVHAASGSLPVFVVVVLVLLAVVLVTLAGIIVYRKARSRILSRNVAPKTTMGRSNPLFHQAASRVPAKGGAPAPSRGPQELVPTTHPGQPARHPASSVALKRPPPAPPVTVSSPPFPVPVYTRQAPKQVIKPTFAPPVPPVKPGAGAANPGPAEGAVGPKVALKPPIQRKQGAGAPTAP
Put plainly: Inhibition of ADAM8 in human MDA-MB-231 cells assessed as inhibition of Akt phosphorylation at Ser473 residue at 10 uM incubated for 48 hrs by western blot analysis. It is filed as cell-based. Background: A western blot detects proteins with antibodies after separation by electrophoresis.

Assay [2] deals with T1, Disintegrin and metalloproteinase domain-containing protein 8 (Homo sapiens). In words: Inhibition of ADAM8 in human MDA-MB-231 cells assessed as inhibition of ERK1/2 phosphorylation at Thr202/Tyr204 residues at 10 uM incubated for 48 hrs by western blot analysis. It is filed as cell-based.

Structures are written as SMILES. Active and inactive are the calls of the source. The calls are words filed in the database; no cut-off is given here.

In the case of `O=C(NCCC[C@@H](NS(=O)(=O)c1ccc(OCc2cc(Br)cc(Br)c2)cc1)C(=O)NO)c1cccc(C(=O)NCCC[C@@H](NS(=O)(=O)c2ccc(OCc3cc(Br)cc(Br)c3)cc2)C(=O)NO)c1`, the inhibition result in assay [1] and in assay [2] was “inactive” in each case.

Consider `O=C(CCCNC(=O)c1cccc(C(=O)NCCCC(=O)NCCC[C@@H](NS(=O)(=O)c2ccc(OCc3cc(Br)cc(Br)c3)cc2)C(=O)NO)c1)NCCC[C@@H](NS(=O)(=O)c1ccc(OCc2cc(Br)cc(Br)c2)cc1)C(=O)NO`, for which the inhibition result in assay [1] and in assay [2] was “inactive” throughout.

For `O=C(NCCC[C@@H](NS(=O)(=O)c1ccc(OCc2cc(Br)cc(Br)c2)cc1)C(=O)NO)NCCC[C@@H](NS(=O)(=O)c1ccc(OCc2cc(Br)cc(Br)c2)cc1)C(=O)NO`, the inhibition result in assay [1] and in assay [2] was “inactive” in each case.

(Values after ChEMBL document CHEMBL5226358, “Discovery of Dimeric Arylsulfonamides as Potent ADAM8 Inhibitors” (ACS Med Chem Lett, 2021).)
